Patent publication US20170276611A1, “CHALCOGENOPYRYLIUM DYES, COMPOSITIONS COMPRISING SAME, COMPOSITE NANOPARTICLES COMPRISING SAME, AND METHODS OF MAKING AND USING THE SAME” (The Research Foundation for The State University of New York, priority 2014, published 2017)

Columns and labels:
Type in all cases: physicochemical
[1] = Fluorescence of dyes incorporated in silica without gold nanoparticle; settings: dye in silica without gold nanoparticle, excited at 785-nm, 50 μW/cm^2, 1.0 s
From the text: Comparison of CP-dye 3 with a cyanine-based SERRS-reporter. In order to assess the quality of our optimized nanoprobe, thiopyrylium dye 3 and commercially available IR792 (FIG. 19 A), which has been previously used to generate surface-enhanced resonance Raman scattering nanoprobes, were studied. […] It is interesting to note that a fluorescence background is minimal in the SERRS spectra of the CP- and cyanine-based SERRS-nanoprobes. Whereas fluorescence interference would not be expected from chalcogenopyrylium dyes containing heavy chalcogens that enhance intersystem crossing, fluorescence interference could be expected for the cyanine dye IR792. […] This is due to quenching effects near the surface of the nanoparticle.

[2] = UV/VIS-near-IR absorption of the dyes; settings: Table 2, Example 2 dyes
Protocol: Synthetic Methods. All reactions were performed open to air unless otherwise noted. Concentration in vacuo was performed on a rotary evaporator. NMR spectra were recorded at 300 or 500 MHz for ^1H and at 75.5 MHz for ^13C with residual solvent signal as internal standard. UV/VIS-near-IR spectra were recorded in quartz cuvettes with a 1-cm path length. Melting points were determined with a capillary melting point apparatus and are uncorrected. […] Pyranones 16b-16d are known compounds (J. Heterocycl. Chem. 1999, 36, 707-717). The synthesis of thiopyranone 16a and 4-methylpyrylium salt 15c is shown in Scheme 2. 4-Methylpyrylium salts 15a, 15d, and 15e have been reported previously in the literature (J. Org. Chem. 1982, 47, 5235-5239; Organometallics 1988, 7, 1131-1147; Dyes Pigm. 2000, 45, 1-7).

[3] = Effect of counterion on colloidal stability of SERRS-nanoprobes; settings: 10 μM dye
Protocol: Effect of counterion on colloidal stability and SERRS-signal. […] Since SERRS is highly dependent on these factors, we evaluated the effect of the counterion (Z^−) on the SERRS spectrum, intensity, and colloidal stability of the pyrylium-based SERRS-nanoprobes. We compared chloride (Cl^−), bromide (Br^−), perchlorate (ClO4^−), and hexafluorophosphate (PF6^−) as counterions for chalcogenopyrylium dye 1a. The SERRS-nanoprobes were synthesized in the presence of equimolar amounts (10 μM) of CP dye 1a.Z^− (where Z^−═Cl^−, Br^−, ClO4^−, or PF6^−). The counterion introduces almost no difference in optical properties (e.g. absorption maxima, extinction coefficient). Furthermore, with the exception of the chloride counter-ion, the Raman shifts and intensity of 1a were minimally affected by the different counterions (FIG. 17 B). […] Since the PF6^− anion induced the least nanoparticle aggregation, it was used for further SERRS experiments.
SERRS-nanoprobe characterization. […] The size and concentration of the SERRS-nanoprobes were determined on a Nanoparticle Tracking Analyzer (NTA; Malvern Instruments, Malvern, UK). Absorption spectra to determine possible nanoparticle aggregation (typically detectable at wavelengths >600 nm) were measured on an M1000Pro spectrophotometer (Tecan Systems Inc. San Jose, Calif.). […]

Compound | fluorescence [1] | Log (ε) [2] | λmax (CH2Cl2) ([2]; CH2Cl2) [nm] | colloidal stability of SERRS-nanoprobes ([3]; counterion Cl^−) | colloidal stability of SERRS-nanoprobes ([3]; counterion PF6^−)
CCCN1/C(=C\C=C2/CCCC(/C=C/C3=[N+](CCC)c4ccccc4C3(C)C)=C2Sc2ccccc2)C(C)(C)c2ccccc21 [IR792] | strong fluorescence |  |  |  | 
C(=Cc1cc(-c2ccccc2)[se+]c(-c2ccccc2)c1)C=C1C=C(c2ccccc2)[Se]C(c2ccccc2)=C1.F[P-](F)(F)(F)(F)F [Dye 1a, 4-(3-(2,6-diphenyl-4H-selenopyran-4-ylidene)prop-1-enyl)-2,6-diphenylselenopyrylium hexafluorophosphate] |  | 5.40 | 806 | strongly destabilized the gold colloids and caused aggregation | did not affect colloidal stability
